As a reminder, the ΔTm is the shift of the melting midpoint relative to a reference.

The source made the active and inactive calls. No cut-off for these calls is given here. Some results are limits rather than exact numbers.

What all share (format): nucleic-acid assay
For assay [1], the system named is Nucleic Acid. In words: Binding affinity to AAATTT DNA by SPR assay. In general terms: In SPR one partner is held on a chip, and binding of the other changes the refractive index at the surface.
Assay [2] concerns Nucleic Acid. In words: Binding affinity to ACGCGT DNA assessed as change in melting temperature by thermal denaturation assay.
For assay [3], the system named is Nucleic Acid. In words: Binding affinity to AAATTT DNA assessed as change in melting temperature by thermal denaturation assay.
The subject of assay [4] is Nucleic Acid. In words: Binding affinity to ACGCGT DNA by SPR assay.
Assay [5] has as its system Nucleic Acid. The experiment in a line: Binding affinity to ACGCGT DNA by ITC assay. On the technique in general: ITC needs no label: the signal is the heat of the interaction.
The test system of assay [6] is Nucleic Acid. In words: Binding affinity to ACATGT DNA by SPR assay.
Assay [7] deals with Nucleic Acid. The experiment in a line: Binding affinity to ATGCAT DNA assessed as change in melting temperature by thermal denaturation assay.

As to `CN(C)CCNC(=O)c1nc(NC(=O)c2cc(NC(=O)c3nc(NC=O)cn3C)cn2C)cn1C`, the figures for the Ke with Nucleic Acid [1] and in the assay on Nucleic Acid [4] were 5.3 ×10⁴ /M and 1.9 ×10⁸ /M, respectively. In addition, the results for the ΔTm in the assay on Nucleic Acid [2] and in the assay with Nucleic Acid [3] were 7.8 °C and 1 °C, respectively. Moreover, the outcome in the assay on Nucleic Acid [5] was Active.

As to `CN(C)CCNC(=O)c1nc(NC(=O)c2cc(NC(=O)c3nc(NC=O)cn3CCCN)cn2C)cn1C`, the Ke was 2.2 ×10⁶ /M in the assay on Nucleic Acid [1], 3.7 ×10⁶ /M in the assay on Nucleic Acid [6] and 2.3 ×10⁷ /M in the assay on Nucleic Acid [4]. The shift in melting temperature (ΔTm) in the assay with Nucleic Acid [2] was above 20 °C; in the assay on Nucleic Acid [3], 11 °C; in the assay with Nucleic Acid [7], 20 °C. In addition, the result in the assay with Nucleic Acid [5] was Active.

On to `CN(C)CCNC(=O)c1nc(NC(=O)c2cc(NC(=O)c3nc(NC=O)cn3C)cn2CCCN)cn1C`, for which the ΔTm with Nucleic Acid [2] was above 24 °C; in the assay with Nucleic Acid [3], 10 °C; in the assay on Nucleic Acid [7], 24 °C. This molecule also returned a Ke in the assay with Nucleic Acid [4] of 2.4 ×10⁸ /M. Further, the outcome in the assay with Nucleic Acid [5] was Active.

The values above are taken from ChEMBL document CHEMBL2069255, “Synthesis and DNA binding properties of 1-(3-aminopropyl)-imidazole-containing triamide f-Im*PyIm: a novel diamino polyamide designed to target 5'-ACGCGT-3'” (Bioorg Med Chem Lett, 2012).
